Two molecules from patent US9351955B2, “Compounds and pharmaceutical compositions thereof for the treatment of cystic fibrosis” (Galapagos NV, priority 2013, dated 2016) can be followed below.

The target in one data set is T1, CFTR-S549N (Homo sapiens, UniProt P13569, S549N).
T1 construct: expressed in transfected cells
Put plainly: YFP-halide influx assay for the CFTR-S549N. It counts as cell-based. The note with it: CFTR-S549N mutant; read-out: EC50 measured by YFP-halide influx assay for the CFTR-S549N. The method in brief:
(§1)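 HEK293 cells reverse-transfected with mutant CFTR and halide-sensitive YFP H148Q/I152L/F47L reporter, then expressed 24 h at 37 °C, 5% CO2. Fluorescence quenching recorded for 7 s after I^− injection; response expressed as 1−F/F0, with EC50 derived from response versus compound concentration.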

For a further data set, the target named is T2, CFTR-R117H (Homo sapiens, UniProt P13569, R117H).
T2 construct: expressed in transfected cells
Put plainly: YFP-halide influx assay for the CFTR-R117H. It counts as cell-based. To be noted: CFTR-R117H mutant; read-out: EC50 measured by YFP-halide influx assay for the CFTR-R117H. A digest of the protocol: as §1

The next data set has as its target CFTR G551D (Homo sapiens, UniProt P13569, G551D). As to the kind of experiment: TECC assay, FRT cells stably transfected with G551D CFTR. The data set is classed as cell-based. The note with it: high expression CFTR-G551D cells, several values in a cell = repeat determinations. As to the method: 7.2.3. FRT-CFTR G551D Protocol
For G551D recordings, Fish Rat Thyroid (FRT) cells stably transfected with G551D CFTR (a low CFTR-G551D expressing cell line and a high expressing CFTR-G551D cell line from Rosalind Franklin University of medicine and science, Chicago, Ill.) are plated on Transwell supports (Costar 6.5 mm Diameter, […]). The cells are grown for 8-10 d under liquid-liquid interface conditions prior to electrophysiological readings. For electrophysiological recording, the FRT-G551D cells are mounted in the TECC heating plate for electrophysiological measurement and kept at 37° C. The epithelia are bathed in hepes buffered culturing medium without FBS on both the basolateral and apical sides. Apical amiloride is used to inhibit the endogenous ENaC currents while forkolin is applied on both apical and basolateral side to stimulate CFTR. After forskolin triggering, compounds are added on both sides to test their potential for increasing CFTR gating. Measurements are done during a 10 minute timeframe with recordings every 2 min. The increase in ISC is used as a measure for the increased CFTR activity, EC50 values can be generated by measuring impact of different concentrations of compound on ISC on the cells, for this purpose each transwell is treated with a different compound concentration. Inh-172, an inhibitor specific for CFTR, is used to test the specificity of the tested compounds.
When subjected to this protocol, the following EC50 are measured.

The next data set addresses T3, CFTR-G178R (Homo sapiens, UniProt P13569, G178R).
T3 construct: expressed in transfected cells
Put plainly: YFP-halide influx assay for the CFTR-G178R. It counts as cell-based. To be noted: read-out: EC50 measured by YFP-halide influx assay for the CFTR-G178R. A digest of the protocol:
as §1

A short description of a further data set: Lung distribution study. It counts as in vivo, Sprague-Dawley rats. To be noted: male, Sprague-Dawley, rat, plasma, oral, 10 mg/kg, exposure values. The protocol:
Sprague-Dawley rats (male, 5-6 weeks old) are obtained from Janvier (France). Rats are acclimatized for at least 5 days before treatment and are kept on a 12 h light/dark cycle. Temperature is maintained at approximately 22° C., and food and water are provided ad libitum. Two days before administration of the test compounds, rats may undergo surgery to place a catheter in the jugular vein under isoflurane anesthesia. After the surgery, rats are housed individually. Rats are deprived of food for at least 16 h before oral dosing and 6 h after. Water is provided ad libitum.
8.7.3. Lung Distribution Studies
Compounds are formulated in 0.5% methylcellulose and EtOH/PEG 200/Methylcellulose 0.5% (10/25/65 v/v/v) by the oral route. Test compounds are orally dosed as a single esophageal gavage at 10 mg/kg under a dosing volume of 5 mL/kg. Each group consists of 12 rats. At each time point, typically 1, 3, 6 and 24 h, animals are euthanized and blood and lung samples are collected. Whole blood samples are centrifuged at 1500 g for 10 min and the resulting plasma samples, along with the lung samples, are stored at −20° C. pending analysis.
8.7.4. Quantification of Compound Levels in Plasma and Lung Samples
Lung samples are milled in the presence of ceramic beads and proteins present in plasma and lung samples are precipitated with an organic solvent. Concentrations of each test compound are determined by an LC-MS/MS method in which the mass spectrometer is operated in positive or negative electrospray mode.
For each animal, the lung-to-plasma ratio is determined as the ratio between compound concentration in lung and in plasma. At each sampling time point, mean, standard error of the mean (sem) and coefficient of variation (CV %) are calculated using data from three animals.

A further data set has as its target T4, CYP3A4 (Homo sapiens, UniProt P08684).
T4 construct: tissue BD Gentest; host or cells: human liver microsomes
Put plainly: Time dependent inhibition (TDI) of CYP3A4 in human liver microsomes. The data set is classed as in vitro ADME. The protocol: 8.7.11. Time Dependent Inhibition (TDI) 8.7.11.1. Protocol
The mechanism-based inhibition assay for CYP3A4 is carried out to evaluate the presence of any TDI.
A 5 mM stock solution of test compound is prepared in methanol. This stock is serially diluted 1:3 in methanol and then added in duplicates to mixture containing 50 mM potassium phosphate buffer pH 7.4 and human liver microsomes (BD Gentest). Final reaction conditions are as follows: seven test compound concentrations (0.14-100 μM), prepared in duplicates and 2% methanol.
A summary of the specific conditions is shown below.
After finishing the pre-incubation, the reaction is finally started by adding the co-factor mix to the first replica and probe substrate to second replica (opposite from pre-incubation).
After incubation at 37° C., the reaction (aliquot of 50 μL) is terminated with 150 μL acetonitrile:methanol (2:1) solution with internal standard (warfarin). Samples are centrifuged and the supernatant fractions analyzed by LC-MS/MS.
The instrument responses (ratio of test compound and internal standard peak areas) are referenced to those for solvent controls (assumed as 100%) in order to determine the percentage reduction in probe metabolism. […]

“And” between values parts separate entries of the source, which are not always exact repeats. Equal values may be shown once.

Sequence of CFTR G551D (P13569 whole entry G551D): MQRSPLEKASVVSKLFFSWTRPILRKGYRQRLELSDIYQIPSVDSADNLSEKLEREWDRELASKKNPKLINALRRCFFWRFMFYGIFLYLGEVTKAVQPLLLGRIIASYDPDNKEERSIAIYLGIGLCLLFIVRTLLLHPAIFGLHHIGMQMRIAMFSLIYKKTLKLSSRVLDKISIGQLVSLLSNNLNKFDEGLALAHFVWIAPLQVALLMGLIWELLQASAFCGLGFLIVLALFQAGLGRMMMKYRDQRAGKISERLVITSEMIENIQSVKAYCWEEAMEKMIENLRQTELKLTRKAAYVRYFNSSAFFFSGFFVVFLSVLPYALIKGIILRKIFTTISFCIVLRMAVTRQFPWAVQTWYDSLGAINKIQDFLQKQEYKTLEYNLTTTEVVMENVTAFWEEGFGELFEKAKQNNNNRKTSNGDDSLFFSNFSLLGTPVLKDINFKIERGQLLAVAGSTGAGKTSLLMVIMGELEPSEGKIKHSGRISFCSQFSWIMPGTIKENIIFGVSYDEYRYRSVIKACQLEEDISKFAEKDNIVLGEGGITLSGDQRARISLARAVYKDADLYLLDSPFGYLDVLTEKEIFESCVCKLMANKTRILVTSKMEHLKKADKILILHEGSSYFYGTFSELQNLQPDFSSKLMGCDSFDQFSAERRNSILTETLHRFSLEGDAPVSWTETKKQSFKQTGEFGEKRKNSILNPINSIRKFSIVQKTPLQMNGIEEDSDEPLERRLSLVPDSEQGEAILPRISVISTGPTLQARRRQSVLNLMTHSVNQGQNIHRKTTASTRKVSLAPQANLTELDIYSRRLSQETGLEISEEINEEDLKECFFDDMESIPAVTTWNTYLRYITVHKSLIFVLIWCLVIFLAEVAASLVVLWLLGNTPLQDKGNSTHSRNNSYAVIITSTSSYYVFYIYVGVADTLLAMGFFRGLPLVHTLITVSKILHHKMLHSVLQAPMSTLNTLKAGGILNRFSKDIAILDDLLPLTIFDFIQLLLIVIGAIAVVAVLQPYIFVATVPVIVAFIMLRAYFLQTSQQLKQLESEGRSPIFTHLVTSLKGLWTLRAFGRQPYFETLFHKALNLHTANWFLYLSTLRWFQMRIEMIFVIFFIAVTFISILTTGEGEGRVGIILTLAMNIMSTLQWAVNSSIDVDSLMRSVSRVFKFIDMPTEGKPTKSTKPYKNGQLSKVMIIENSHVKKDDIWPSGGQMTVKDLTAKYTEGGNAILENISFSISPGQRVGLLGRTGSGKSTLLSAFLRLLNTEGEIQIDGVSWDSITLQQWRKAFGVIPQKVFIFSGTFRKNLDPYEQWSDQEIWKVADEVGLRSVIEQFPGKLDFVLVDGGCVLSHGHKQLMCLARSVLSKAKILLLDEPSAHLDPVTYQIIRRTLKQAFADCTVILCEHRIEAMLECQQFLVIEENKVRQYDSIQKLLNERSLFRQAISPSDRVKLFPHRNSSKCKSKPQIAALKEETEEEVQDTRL
T4 sequence (P08684 whole entry): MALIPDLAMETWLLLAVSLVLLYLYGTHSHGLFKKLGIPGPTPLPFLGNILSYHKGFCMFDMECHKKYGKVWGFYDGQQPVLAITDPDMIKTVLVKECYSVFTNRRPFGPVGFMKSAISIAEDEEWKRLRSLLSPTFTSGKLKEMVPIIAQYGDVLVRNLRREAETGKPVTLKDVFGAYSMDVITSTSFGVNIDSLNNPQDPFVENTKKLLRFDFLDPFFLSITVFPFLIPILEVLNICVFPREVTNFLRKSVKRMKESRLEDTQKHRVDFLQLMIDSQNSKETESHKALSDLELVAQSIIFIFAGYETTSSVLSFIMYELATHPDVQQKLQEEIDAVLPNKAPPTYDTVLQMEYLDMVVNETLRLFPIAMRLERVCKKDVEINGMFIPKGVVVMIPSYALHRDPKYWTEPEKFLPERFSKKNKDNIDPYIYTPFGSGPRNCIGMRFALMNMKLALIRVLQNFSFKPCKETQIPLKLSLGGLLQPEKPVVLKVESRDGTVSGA
T1 sequence (P13569 whole entry S549N): as the sequence (P13569 whole entry G551D) above, with S549N, D551G counted along it
T2 sequence (P13569 whole entry R117H): as the sequence (P13569 whole entry G551D) above, with R117H, D551G counted along it
T3 sequence (P13569 whole entry G178R): as the sequence (P13569 whole entry G551D) above, with G178R, D551G counted along it

In the case of `CC1(C)Cc2c(sc(NC(=O)C3(CO)CC3)c2C(N)=O)C(C)(C)O1` [Compound 9, 2-(1-(hydroxymethyl)cyclopropanecarboxamido)-5,5,7,7-tetramethyl-5,7-dihydro-4H-thieno[2,3-c]pyran-3-carboxamide], the concentration giving a half-maximal response (EC50) – broadly, the concentration that produces a half-maximal response – on CFTR-S549N is 902 nM; at CFTR-R117H, 433 nM; on CFTR G551D, 361 nM and 527 nM and 695 nM and 400 nM and 511 nM; at CFTR-G178R, 699 nM. The AUC(0-t) (commonly the area under the concentration-time curve up to a stated or last time point) in “Lung distribution study” amounted to 38900 ng·h/mL.

For the molecule `CC1(C)Cc2c(sc(NC(=O)c3ccn[nH]3)c2C(N)=O)C(C)(C)O1` [Compound 2, N-(3-carbamoyl-5,5,7,7-tetramethyl-5,7-dihydro-4H-thieno[2,3-c]pyran-2-yl)-1H-pyrazole-5-carboxamide], the EC50 was 211 nM at CFTR-S549N; 166 nM on CFTR-R117H; 66.2 nM and 90.2 nM and 85 nM and 61.5 nM and 57.8 nM and 87.4 nM at CFTR G551D; 56.9 nM at CFTR-G178R. Besides, at CYP3A4 (IC50 without vs with preincubation), the “time-dependent inhibition of CYP3A4” value is on record as “no evidence for time-dependent inhibition of CYP3A4”. The IC50 – broadly, the concentration that gives 50% inhibition – against CYP3A4 (both without and with preincubation, Midazolam or testosterone as probe substrate, human liver microsomes) is greater than 100000 nM.
